# Measurements taken from article PMC10862539, “Chelation of Mitochondrial Iron as an Antiparasitic Strategy” (ACS Infectious Diseases, 2024).
# Where two headings read alike, the source gives them in different places.
# Key:
# iron-containing fumarase = assay: Fumarase activity in cytosolic and mitochondrial fractions of treated T. brucei 427; type: cell-based, Trypanosoma brucei; settings: 0.12 μM compound, 24 h; for reduction of cytosolic fumarase activity: cytosolic fraction; for reduction of mitochondrial fumarase activity: mitochondrial fraction
# Description: (§1) T. brucei 427 bloodstream forms were preincubated for 24 h in appropriate conditions (0.12 μM mitoDFO, 0.12 μM DFO, and no addition) and harvested, and cytosolic and mitochondrial fractions were separated by digitonin fractionation as described previously.[46] Briefly, cells were spun down (1200 g, 15 min, 4 °C) and resuspended in SHE buffer (250 mM sucrose, 25 mM HEPES, 1 mM EDTA, pH 7.4), and protein concentration was measured using a BCA kit (Sigma-Aldrich). Subsequently, cells were transferred into HBSS (Sigma-Aldrich) and digitonin (Calbiochem) was added in the protein/digitonin ratio of 1/0.15 for 4 min and spun (21 000 g, 2 min, 4 °C). The supernatant was collected and placed on ice as a cytosolic fraction. The remaining pellet was lysed using 0.1% Triton X-100 in HBSS for 5 min, resuspended, washed in HBSS twice, and used as a mitochondrial fraction. The activities of cytosolic pyruvate kinase and mitochondrial threonine dehydrogenase were assessed in all conditions using the spectrophotometric assay at […], as described in ref ([46]), and served both as markers of successful fraction preparation and to assess the effect of the studied compounds. Briefly, pyruvate kinase was measured in TEA buffer (0.1 M triethanolamine, 5 mM MgSO4, 50 mM KCl, pH 7.6) with added 2.8 mM phosphoenolpyruvate, 2 mM ADP, 0.3 mM NADH, and lactate dehydrogenase. Threonine dehydrogenase was measured in 0.2 M Tris–HCl buffer, pH 8.6, 0.25 KCl with 120 mM threonine, and 2.5 mM NAD^+. Fumarase was measured at […] in 2 mM Tris–HCl buffer, pH 7.5, with 20 mM malate.
# P. falciparum = assay: Drug sensitivity assay, P. falciparum (SYBR green I); type: cell-based, Plasmodium falciparum; settings: for selectivity (for −Fe): EC50 human fibroblasts / EC50 P. falciparum; for EC50: Plasmodium falciparum
# Description: (§2) All organisms were cultivated according to the conditions summarized in Table S2, which also includes strain specifications. Dose–response curves were obtained by their cultivation on 96 well plates in a 2-fold series dilution of the appropriate drug, in a total volume of 200 μL (with the exception of P. falciparum, where the total volume was 100 μL). Iron supplementation was achieved by mixing the compound with Fe-NTA in an equimolar ratio prior to setting up the experiment. Results were plotted and processed using Prism 8.0 (GraphPad Software). A two-tailed unpaired t-test was performed to assess the significance of the difference between mitoDFO with and without added iron. Selectivity was calculated as the ratio of the average EC50 value for human fibroblasts to the average EC50 value for the appropriate pathogen. All data were obtained from a minimum of three independent biological replicates.
# G. intestinalis = assay: Drug sensitivity assay, G. intestinalis (flow cytometry); type: cell-based; settings: for EC50: Giardia duodenalis, 24 h
# Description: as §2
# [1] = tested on: Trypanosoma brucei 427 bloodstream forms; assay: T. brucei growth curves and doubling time (flow cytometry); type: cell-based; settings: for Average doubling time: calculated between 24 and 48 h
# Description: Bloodstream T. brucei 427 cells were inoculated to a concentration of […] and incubated with the addition of mitoDFO (0.025 and 0.1 μM) or DFO (2.5 and 10 μM) in aerobic flasks in a total volume of 5 mL in 5% CO2 at 37 °C. Control with no compound was used to obtain reference values. At time points 24, 36, 48, and 72 h, a 20 μL sample was collected, diluted in growth medium, and measured on a Guava EasyCyte 8HT flow cytometer (Luminex) to assess concentration in previously experimentally prepared settings. The culture was simultaneously observed by light microscopy to confirm the cell viability. The growth curve was plotted by using Prism 8.0 (GraphPad Software). All conditions were measured in three biologically independent replicates. Doubling time was calculated between 24 and 48 h time points using the online calculator,[45] and each of the conditions was compared to the untreated culture using a two-tailed unpaired t-test.
# [2] = tested on: mitochondrial threonine dehydrogenase; assay: Threonine dehydrogenase activity in mitochondrial fraction of treated T. brucei 427; type: cell-based, Trypanosoma brucei; settings: 0.12 μM compound, 24 h
# Description: as §1, with “The supernatant was collected and placed on ice as a cytosolic fraction. The remaining pellet was lysed using 0.1% Triton X-100 in HBSS for 5 min, resuspended, washed in HBSS twice, and used as a mitochondrial fraction.” left out
# murine macrophage [3] = assay: Murine macrophage axenic monoculture EC50; type: cell-based, mouse; settings: Mus musculus, Macrophage, read-out: EC50 axenic murine macrophage
# [4] = tested on: cytosolic pyruvate kinase; assay: Pyruvate kinase activity in cytosolic fraction of treated T. brucei 427; type: cell-based, Trypanosoma brucei; settings: 0.12 μM compound, 24 h
# Description: as §1, with “The supernatant was collected and placed on ice as a cytosolic fraction. The remaining pellet was lysed using 0.1% Triton X-100 in HBSS for 5 min, resuspended, washed in HBSS twice, and used as a mitochondrial fraction.” left out
# Human fibroblast BJ1 = assay: Drug sensitivity assay, human fibroblast BJ1 (CellTiter-Glo); type: cell-based; settings: for EC50: 48 h
# Description: as §2
# [5] = tested on: intracellular Leishmania mexicana amastigotes; assay: Intracellular L. mexicana infection assay, GFP amastigotes in macrophages; type: cell-based; settings: for EC50: Leishmania mexicana, Macrophage, read-out: EC50 infection assay Leishmania mexicana
# Description: (§3) Approximately 10 000 murine macrophages per well were seeded on 96 well plate, and a suspension of 60 000 L. mexicana GFP-expressing promastigotes was added to each well and left to infect the mammal cells for 72 h in a cultivation medium under the conditions described in Table S2. 2-fold dilution series starting with 100 μM of either mitoDFO, DFO, or Amphotericin B in a regular growth medium were added, and cultures were incubated for further 72 h in the same conditions. Macrophage cells were washed and resuspended in growth medium and detached by pipetting, and their concentration in each well was measured on a Guava EasyCyte 8HT flow cytometer (Luminex). The GFP signal of internalized L. mexicana amastigotes in each macrophage was detected using a 488 nm excitation laser and a 525/30 nm detector. Median fluorescence graphs were plotted, and EC50 values for both macrophages and intracellular L. mexicana were calculated using Prism 8.0 (GraphPad Software).
# T. brucei STIB (BSF) = assay: Drug sensitivity assay, T. brucei STIB bloodstream form (resazurine); type: cell-based, Trypanosoma brucei; settings: for selectivity (for −Fe): EC50 human fibroblasts / EC50 T. brucei STIB (BSF); for EC50: Trypanosoma brucei, 72 h
# Description: as §2
# L. mexicana (amastigote) = assay: Drug sensitivity assay, axenic L. mexicana amastigote (flow cytometry); type: cell-based, Leishmania mexicana; settings: for EC50: Leishmania mexicana
# Description: as §2
# T. gambiense (BSF) = assay: Drug sensitivity assay, T. gambiense bloodstream form (resazurine); type: cell-based, Trypanosoma gambiense; settings: for selectivity (for −Fe): EC50 human fibroblasts / EC50 T. gambiense (BSF); for EC50: Trypanosoma brucei, 72 h
# Description: as §2
# murine macrophage [6] = assay: Intracellular L. mexicana infection assay, macrophage population; type: cell-based, mouse; settings: Mus musculus, Macrophage, read-out: EC50 infection assay murine macrophage
# Description: as §3
# [7] = approximately half the EC50 concentration of the compound
# [8] = axenic monoculture, read-out: EC50 axenic Leishmania mexicana
# [9] = iron-free compound, L. mexicana (amastigote), 120 h, read-out: EC50 –Fe
# [10] = pre-treated with equimolar iron, L. mexicana (amastigote), 120 h, read-out: EC50 +Fe
smiles,measurement,setting,value
"CC(=O)N(O)CCCCCNC(=O)CCC(=O)N(O)CCCCCNC(=O)CCC(=O)N(O)CCCCCN [DFO, Deferoxamine, reference compound]",reduction of cytosolic fumarase activity,iron-containing fumarase,no significant effect
same,reduction of mitochondrial fumarase activity,iron-containing fumarase,no significant effect
same,selectivity (for −Fe),P. falciparum,>8
same,EC50,"P. falciparum; iron-free compound, P. falciparum, 48 h, read-out: EC50 –Fe",12.7 ± 0.6 µM
same,EC50,"P. falciparum; pre-treated with equimolar iron, P. falciparum, 48 h, read-out: EC50 +Fe",> 50 µM
same,EC50,"G. intestinalis; iron-free compound, G. intestinalis, read-out: EC50 –Fe",> 100 µM
same,EC50,"G. intestinalis; pre-treated with equimolar iron, G. intestinalis, read-out: EC50 +Fe",> 100 µM
same,Average doubling time,[1]; 2.5 μM DFO,8.28 h
same,Average doubling time,[1]; 10 μM DFO,14.17 h
same,cell proliferation (growth curve),[1]; [7],slows down cell proliferation
same,threonine dehydrogenase activity,[2],not
same,EC50,murine macrophage [3]; axenic monoculture,> 25 µM
same,pyruvate kinase activity,[4],no difference in activity
same,EC50,"Human fibroblast BJ1; iron-free compound, Human fibroblast BJ1, read-out: EC50 –Fe",> 100 µM
same,EC50,"Human fibroblast BJ1; pre-treated with equimolar iron, Human fibroblast BJ1, read-out: EC50 +Fe",> 100 µM
same,EC50,"[5]; intracellular amastigotes, 72 h treatment",47.1 ± 2.91 µM
same,selectivity (for −Fe),T. brucei STIB (BSF),>38
same,EC50,"T. brucei STIB (BSF); iron-free compound, T. brucei STIB (BSF), read-out: EC50 –Fe",2.61 ± 0.753 µM
same,EC50,"T. brucei STIB (BSF); pre-treated with equimolar iron, T. brucei STIB (BSF), read-out: EC50 +Fe",14.5 ± 1.18 µM
same,EC50,L. mexicana (amastigote); [8],> 25 µM
same,EC50,L. mexicana (amastigote); [9],> 25 µM
same,EC50,L. mexicana (amastigote); [10],> 25 µM
same,selectivity (for −Fe),T. gambiense (BSF),>40
same,EC50,"T. gambiense (BSF); iron-free compound, T. gambiense (BSF), read-out: EC50 –Fe",2.47 ± 1.16 µM
same,EC50,"T. gambiense (BSF); pre-treated with equimolar iron, T. gambiense (BSF), read-out: EC50 +Fe",> 25 µM
same,EC50,"murine macrophage [6]; infected macrophages, 72 h treatment",45.3 ± 3.09 µM
CC(=O)N(O)CCCCCNC(=O)CCC(=O)N(O)CCCCCNC(=O)CCC(=O)N(O)CCCCCN(CCCCCCCCCC[P+](c1ccccc1)(c1ccccc1)c1ccccc1)CCCCCCCCCC[P+](c1ccccc1)(c1ccccc1)c1ccccc1 [mitoDFO],reduction of cytosolic fumarase activity,iron-containing fumarase,approximately 3 fold
same,reduction of mitochondrial fumarase activity,iron-containing fumarase,approximately 3 fold
same,selectivity (for −Fe),P. falciparum,27
same,DFO/mitoDFO ratio (−Fe),P. falciparum; P. falciparum,38.0
same,mitoDFO EC50 ratio + Fe/–Fe,P. falciparum; P. falciparum,1.4
same,EC50,P. falciparum,0.334 ± 0.01 µM
same,EC50,"P. falciparum; 48 h, read-out: EC50 –Fe",0.33 ± 0.01 µM
same,EC50,G. intestinalis; read-out: EC50 –Fe,> 50 µM
same,effect on G. intestinalis,G. intestinalis; in words,not affected
same,Average doubling time,[1]; 0.025 μM mitoDFO,8.07 h
same,cell proliferation (growth curve),[1]; [7],does not affect cell proliferation
same,cell proliferation (growth curve),[1]; twice the EC50 concentration,stops its growth
same,threonine dehydrogenase activity,[2],significantly reduced
same,EC50,murine macrophage [3],6.34 ± 4.45 µM
same,pyruvate kinase activity,[4],no difference in activity
same,EC50,"Human fibroblast BJ1; Homo sapiens, Fibroblast, read-out: EC50 –Fe",8.9 ± 3.2 µM
same,DFO/mitoDFO ratio (−Fe),Human fibroblast BJ1; Human fibroblast BJ1,>11.2
same,mitoDFO EC50 ratio + Fe/–Fe,Human fibroblast BJ1; Human fibroblast BJ1,2.5
same,"decrease in EC50 concentration, intracellular amastigotes versus axenic parasites",[5],2 fold
same,EC50,[5]; 72 h,0.67 ± 0.24 µM
same,selectivity (for −Fe),T. brucei STIB (BSF),28
same,DFO/mitoDFO ratio (−Fe),T. brucei STIB (BSF); T. brucei STIB (BSF),8.1
same,EC50,T. brucei STIB (BSF); read-out: EC50 –Fe,0.32 ± 0.067 µM
same,selectivity (for −Fe),L. mexicana (amastigote); EC50 human fibroblasts / EC50 L. mexicana (amastigote),6
same,DFO/mitoDFO ratio (−Fe),L. mexicana (amastigote); L. mexicana (amastigote),>15.6
same,mitoDFO EC50 ratio + Fe/–Fe,L. mexicana (amastigote); L. mexicana (amastigote),1.5
same,EC50,L. mexicana (amastigote); [8],1.56 ± 0.5 µM
same,EC50,L. mexicana (amastigote); [9],1.6 ± 0.5 µM
same,EC50,L. mexicana (amastigote); [10],2.4 ± 0.5 µM
same,selectivity (for −Fe),T. gambiense (BSF),49
same,DFO/mitoDFO ratio (−Fe),T. gambiense (BSF); T. gambiense (BSF),13.7
same,mitoDFO EC50 ratio + Fe/–Fe,T. gambiense (BSF); T. gambiense (BSF),1.2
same,EC50,"T. gambiense (BSF); GAMBIENSE, read-out: EC50 –Fe",0.181 ± 0.043 µM
same,EC50,murine macrophage [6]; 72 h,4.67 ± 1.18 µM
